# Test results as given in patent US7741323B2, “Indene derivatives and process for the preparation thereof” (Korea Research Institute of Chemical Technology, priority 2004, dated 2010).
# Columns and labels:
# Format in all cases: in vivo
# [1] = tested on: C57/BL6J mice; experiment: Suppression of blood glucose and insulin levels in high fat diet C57/BL6J mice
# Text: Days 1, 3 and 5 were selected for intraperitoneal administration, and days 5, 10 and 14, for oral administration, to collect blood samples for measuring the blood glucose levels. […] Upon the completion of the oral administration for 14 days, the mice were fasted for 16 hrs to perform OGTT (Oral Glucose Tolerance Test) to determine the changes in insulin sensitivity induced by the oral administration. After administrating glucose to the mice at a dose of 2 g/kg orally, blood samples were collected at 0, 15, 30 60 and 120 minutes to measure blood glucose levels.
# The extents of suppression of blood glucose and insulin levels were measured as mentioned above. To check possible adverse side effects caused by the administration of the compound, the weight, heart weight and liver weight of each mouse were measured. GPT and GOT values were also calculated by employing a kit available in the market.
# [2] = tested on: ob/ob mice; experiment: Effectiveness in lowering blood glucose level in ob/ob mice
# Experimental: The resulting solution was intraperitoneally administered to the mice at a dose of 50 mg/kg, once a day for 5 days, or orally administered to the mice, at a dose of 100 mg/kg, twice a day for 14 days. Days 1, 3 and 5 were selected for intraperitoneal administration, and days 5, 10 and 14, for oral administration, to collect blood samples for measuring the blood glucose levels. […] Upon the completion of the oral administration for 14 days, the mice were fasted for 16 hrs to perform OGTT (Oral Glucose Tolerance Test) to determine the changes in insulin sensitivity induced by the oral administration. After administrating glucose to the mice at a dose of 2 g/kg orally, blood samples were collected at 0, 15, 30 60 and 120 minutes to measure blood glucose levels.
# [3] = Adverse side effects check (weight, heart weight, liver weight, GPT/GOT) in high fat diet C57/BL6J mice
# Experimental: To check possible adverse side effects caused by the administration of the compound, the weight, heart weight and liver weight of each mouse were measured. GPT and GOT values were also calculated by employing a kit available in the market.
# [4] = high fat diet C57/BL6J mice, after 14 days oral administration
# [5] = high fat diet C57/BL6J mice, oral administration once a day for 14 days
# [6] = high fat diet C57/BL6J mice, oral administration for 14 days
substance,measurement,setting,value
"1-hydroxy-6-(2-morpholine-4-yl-ethoxy)-1,3-diphenyl-1H-indene-2-carboxylic acid ethyl ester [Example 8]",effect in lowering blood glucose and insulin levels,"[1]; administered orally or intraperitoneally, summary of Tables 6, 7 and 8",excellent effect in lowering both blood glucose and insulin levels
same,"% Inhibition, Oral Glucose Tolerance Test (Glucose)",[1]; [4],23.8%
same,"% Inhibition, Oral Glucose Tolerance Test (Insulin)",[1]; [4],56.2%
same,"% Inhibition, Blood glucose concentration",[1]; [5],30.0%
same,"% Inhibition, Blood insulin concentration",[1]; [5],44.6%
same,"% Inhibition, Oral Glucose Tolerance Test (Blood Glucose)","[2]; ob/ob mice after 14 days oral administration, fasted 16 hrs, glucose 2 g/kg orally, total blood glucose over 120 minutes",10.2%
same,"% Inhibition, blood glucose, Intraperitoneal Administration (50 mg/kg/day)","[2]; ob/ob mice, i.p. 50 mg/kg once a day for 5 days, relative to control",32.0%
same,"% Inhibition, blood glucose, Oral Administration (100 mg/kg/day)","[2]; ob/ob mice, oral 100 mg/kg twice a day for 14 days, relative to control",23.7%
same,GOT,[3]; [6],39 ± 7.8 karmen
same,GPT,[3]; [6],29 ± 3.2/ karmen
same,Heart Weight,[3]; [6],0.123 ± 0.007 g
same,Liver Weight,[3]; [6],1.06 ± 0.17 g
same,Weight,[3]; [6],35 ± 1.1 g
same,"side effects (weight gain, hepatotoxicity, cardiotoxicity)","[3]; summary of Tables 6, 7 and 8","no side effects such as weight gain, hepatotoxicity or cardiotoxicity"
